The target in this experiment is T1, human cannabinoid CB2 receptor (Homo sapiens, UniProt P34972).
T1 construct: expressed in transfected cells; host or cells: Saccharomyces cerevisiae strain MMY23
Nature of the experiment: Cannabinoid CB2 receptor agonist activity, yeast reporter assay (FDGlu fluorescence).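 On Emax: 100% equals maximal response of reference agonist HU210.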 The experiment is classed as cell-based. The following applies: for Emax: read-out: efficacy value (Emax) at the cloned human cannabinoid CB2 receptor. On the procedure: The cannabinoid CB2 receptor agonist activity of the compounds of formula (I) was determined in accordance with the following experimental method.
Yeast (Saccharomyces cerevisiae) cells expressing the human cannabinoid CB2 receptor were generated by integration of an expression cassette into the ura3 chromosomal locus of yeast strain MMY23. This cassette consisted of DNA sequence encoding the human CB2 receptor flanked by the yeast GPD promoter to the 5′ end of CB2 and a yeast transcriptional terminator sequence to the 3′ end of CB2. MMY23 expresses a yeast/mammalian chimeric G-protein alpha subunit in which the C-terminal 5 amino acids of Gpa1 are replaced with the C-terminal 5 amino acids of human Gαi3 (as described in Brown et al. (2000), Yeast 16:11-22). Cells were grown at 30° C. in liquid Synthetic Complete (SC) yeast media (Guthrie and Fink (1991), Methods in Enzymology, Vol. 194) lacking uracil, tryptophan, adenine and leucine to late logarithmic phase (approximately 6 OD600/ml).
Agonists were prepared as 10 mM stocks in DMSO. […] Agonist solutions in DMSO (1% final assay volume) were transferred into black, clear bottom, microtitre plates from NUNC (96- or 384-well). […] This mixture (50 ul per well for 384-well plates, 200 ul per well for 96-well plates) was added to agonist in the assay plates (Multidrop 384, Labsystems). After incubation at 30° C. for 24 hours, fluorescence resulting from degradation of FDGlu to fluorescein due to exoglucanase, an endogenous yeast enzyme produced during agonist-stimulated cell growth, was determined using a Spectrofluor microtitre plate reader (Tecan; excitation wavelength: 485 nm; emission wavelength: 535 nm). Fluorescence was plotted against compound concentration and iteratively curve fitted using a four parameter fit to generate a concentration effect value.
where Max[compound X] and Min[compound X] are the fitted maximum and minimum respectively from the concentration effect curve for compound X, and Max[HU210] and Min[HU210] are the fitted maximum and minimum respectively from the concentration effect curve for (6aR,10aR)-3-(1,1′-Dimethylheptyl)-6a,7,10,10a-tetrahydro-1-hydroxy-6,6-dimethyl-6H-dibenzo[b,d]pyran-9-methanol (HU210; available from Tocris). Equieffective molar ratio (EMR) values were calculated from the equation EMR=EC50 [compound X]/EC50 [HU210]
Where EC50 [compound X] is the EC50 of compound X and EC50 [HU210] is the EC50 of HU210.

Where only a bound is given, the exact number is not on record here.

T1 sequence (P34972 whole entry): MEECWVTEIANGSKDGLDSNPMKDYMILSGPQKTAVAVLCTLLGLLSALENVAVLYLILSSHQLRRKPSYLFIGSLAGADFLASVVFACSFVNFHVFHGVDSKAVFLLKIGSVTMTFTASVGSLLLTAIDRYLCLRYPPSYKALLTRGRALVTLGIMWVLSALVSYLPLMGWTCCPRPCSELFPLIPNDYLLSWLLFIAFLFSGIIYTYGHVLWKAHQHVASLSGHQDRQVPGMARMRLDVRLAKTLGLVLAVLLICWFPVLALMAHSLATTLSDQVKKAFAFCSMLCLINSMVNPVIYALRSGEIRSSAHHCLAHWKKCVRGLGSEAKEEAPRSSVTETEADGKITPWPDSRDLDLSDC

In general, EC50 refers to the midpoint of the concentration-response curve. By Emax is commonly meant the maximal effect, on the per cent scale that the assay sets. In the case of `CC(C)(C)c1cc(Nc2cccc(Cl)c2)ncc1C(=O)NCC1CCCCC1` [Example 69, 4-tert-Butyl-6-(3-chloro-phenylamino)-N-cyclohexylmethyl-nicotinamide], the EC50 is less than 300 nM and the maximal response (Emax) is more than 50%. Regarding `O=C(NCC1CCC1)c1cnc(Nc2cc(Cl)cc(Cl)c2)cc1C(F)(F)F` [Example 150, N-Cyclobutylmethyl-6-(3,5-dichloro-phenylamino)-4-tri-fluoromethyl-nicotinamide], the EC50 was less than 300 nM and the Emax is more than 50%.

Regarding `CC(C)c1cc(Nc2ccc(Br)cc2Cl)ncc1C(=O)NCC1CCC1` [Example 255, 6-(4-Bromo-2-chloro-phenylamino)-N-cyclobutylmethyl-4-isopropyl-nicotinamide], the EC50 is less than 300 nM and the maximum response (Emax) is more than 50%. The corresponding values for `O=C(NCC1CCCC1)c1cnc(Nc2ccc(Cl)c(Cl)c2)cc1C(F)(F)F` [Example 156, N-Cyclopentylmethyl-6-(3,4-dichloro-phenylamino)-4-tri-fluoromethyl-nicotinamide] are less than 300 nM and more than 50%. In the case of `CC(C)c1nc(Nc2ccc(Cl)cc2Cl)ccc1C(=O)NCC1CCS(=O)(=O)C1` (stereo not shown) [Example 215, 6-(2,4-Dichloro-phenylamino)-N-(1,1-tetrahydrothiophen-3-ylmethyl)-2-isopropyl-nicotinamide], the EC50 was less than 300 nM and the Emax is more than 50%. Consider `Cc1cc(Cl)ccc1Nc1cc(C(C)C)c(C(=O)NCC2CCCC2)cn1` [Example 246, 6-(2-Methyl-4-chloro-phenylamino)-N-cyclopentylmethyl-4-isopropyl-nicotinamide], for which the EC50 was less than 300 nM and the Emax was more than 50%. Regarding `CC(C)c1cc(Nc2ccc(Br)cc2Cl)ncc1C(=O)NCC1CCCC1` [Example 248, 6-(4-bromo-2-chlorophenylamino)-N-cyclopentylmethyl-4-isopropyl-nicotinamide], the EC50 is less than 300 nM and the Emax is more than 50%. The corresponding values for `CC(C)c1cc(Nc2ccc(C(F)(F)F)c(F)c2)ncc1C(=O)NCC1CCCC1` [Example 92, N-Cyclopentylmethyl-6-(3-fluoro-4-trifluoromethyl-phenylamino)-4-isopropyl-nicotinamide] are less than 300 nM and more than 50%. For the compound `O=C(NC1CCC1)c1cnc(Nc2cccc(Cl)c2)cc1C(F)(F)F` [Example 110, N-Cyclobutyl-6-(3-chloro-phenylamino)-4-trifluoro-methyl-nicotinamide], the EC50 was less than 300 nM and the Emax was more than 50%. `O=C(NCC1CCC1)c1cnc(Nc2ccc(F)cc2F)cc1C(F)(F)F` [Example 166, N-Cyclobutylmethyl-6-(2,4-difluoro-phenylamino)-4-tri-fluoromethyl-nicotinamide]: the EC50 is less than 300 nM and the Emax is more than 50%.

For `CC(C)c1cc(Nc2cc(F)ccc2Br)ncc1C(=O)NCC1CCOCC1` [Example 235, 6-(2-Bromo-5-fluoro-phenylamino)-4-isopropyl-N-(tetrahydro-pyran-4-ylmethyl)-nicotinamide], the EC50 was less than 300 nM and the maximum response (Emax) was more than 50%. As to `Cc1cccc(Nc2cc(C(C)C)c(C(=O)NCC3CCC3)cn2)c1` [Example 37, N-Cyclobutylmethyl-4-isopropyl-6-m-tolylamino-nicotinamide], the Emax was more than 50%. As for `CC(C)c1cc(Nc2ccc(Br)c(F)c2)ncc1C(=O)NCC1CCS(=O)(=O)C1` (stereo not shown) [Example 279, 6-(4-Bromo-3-fluoro-phenylamino)-N-(1,1-dioxo-tetrahydro-1/^6-thiophen-3-ylmethyl)-4-isopropyl-nicotinamide], the EC50 was less than 300 nM and the Emax is more than 50%.

For `CC(C)c1cc(Nc2cc(Cl)ccc2C#N)ncc1C(=O)NCC1CCOCC1` [Example 221, 6-(S-Chloro-2-cyano-phenylamino)-4-isopropyl-N-(tetrahydro-pyran-4-ylmethyl)-nicotinamide], the EC50 fell in the range of 300 to 1000 nM and the Emax is less than 30%. Consider `CC(C)c1cc(Nc2cccc(OC(F)(F)F)c2)ncc1C(=O)NCC1CCC1` [Example 224, N-Cyclobutylmethyl-4-isopropyl-6-(3-trifluoromethoxy-phenylamino)-nicotinamide], for which the EC50 was less than 300 nM and the Emax was more than 50%. As to `Cc1cccc(Nc2cc(C(C)C)c(C(=O)NCC3CCCCC3)cn2)c1` [Example 13, N-Cyclohexylmethyl-4-isopropyl-6-m-tolytamino-nicotinamide], the EC50 was less than 300 nM and the Emax was more than 50%.

`O=C(NCC1CC1)c1cnc(Nc2ccc(Cl)c(Cl)c2)cc1C(F)(F)F` [Example 158, N-Cyclopropylmethyl-6-(3,4-dichloro-phenylamino)-4-tri-fluoromethyl-nicotinamide]: the EC50 is less than 300 nM and the Emax is more than 50%.

Consider `O=C(NCC1CCOCC1)c1ccc(Nc2cccc(Cl)c2)nc1C(F)(F)F` [Example 204, 6-(3-Chloro-phenylamino)-N-(tetrahydro-pyran-4-ylmethyl)-2-trifluoromethyl-nicotinamide], for which the EC50 was less than 300 nM and the Emax was more than 50%. As for `O=C(NCC1CCCCC1)c1cnc(Nc2cccc(Cl)c2)cc1C(F)(F)F` [Example 1, 2-(3-Chlorophenylamino)-4-trifluoromethylpyridine-5-carboxylic acid cyclohexylmethyl amide], the Emax is more than 50%. On to `CC(C)c1nc(Nc2cccc(F)c2)ccc1C(=O)NCC1CCCC1` [Example 217, 6-(3-Fluoro-phenylamino)-N-cyclopentylmethyl-2-isopropyl-nicotinamide], for which the EC50 is less than 300 nM and the Emax was more than 50%. `CC(C)c1cc(Nc2cccc(Cl)c2)ncc1C(=O)NCC1(O)CCCCC1` [Example 54, 6-(3-Chloro-phenylamino)-N-(1-hydroxy-cyclohexylmethyl)-4-isopropyl-nicotinamide]: the EC50 was less than 300 nM and the Emax is more than 50%. Regarding `CC(C)c1cc(Nc2ccc(Br)cc2Cl)ncc1C(=O)NCC1CCOCC1` [Example 82], the EC50 is less than 300 nM and the Emax is more than 50%. Take `O=C(NCC1CCCC1)c1cnc(Nc2cccc(F)c2)cc1C(F)(F)F` [Example 130, N-Cyclopentylmethyl-6-(3-fluoro-phenylamino)-4-tri-fluoromethyl-nicotinamide]: the EC50 was less than 300 nM and the maximal response (Emax) was more than 50%. Regarding `CC(C)CNC(=O)c1cnc(Nc2cccc(F)c2)cc1C(F)(F)F` [Example 131, N-Isobutyl-6-(3-fluoro-phenylamino)-4-trifluoro-methyl-nicotinamide], the EC50 is less than 300 nM and the Emax is more than 50%. As for `CC(C)c1cc(Nc2ccc(C#N)cc2F)ncc1C(=O)NCC1CCC1` [Example 260, 6-(4-Cyano-2-fluoro-phenylamino)-N-cyclobutylmethyl-4-isopropyl-nicotinamide], the EC50 was less than 300 nM and the Emax was more than 50%. On to `CC(C)c1cc(Nc2cccc(Cl)c2)ncc1C(=O)N1CCCCC1` [Example 55, 1-[6-(3-Chloro-phenylamino)-4-isopropyl-pyridin-3-yl]-1-piperidin-1-yl-methanone], for which the EC50 was less than 300 nM and the Emax was more than 50%.

As to `CC(C)c1cc(Nc2ccc(C#N)cc2Cl)ncc1C(=O)NCC1CCC1` [Example 259, 6-(2-Chloro-4-cyano-phenylamino)-N-cyclobutylmethyl-4-isopropyl-nicotinamide], the EC50 was less than 300 nM and the Emax is more than 50%. For `CC(C)c1cc(Nc2ccc(Cl)c(Cl)c2)ncc1C(=O)NCC1CCCCC1` [Example 3, N-Cyclohexylmethyl-6-(3,4-dichloro-phenylamino)-4-isopropyl-nicotinamide], the EC50 is less than 300 nM and the Emax was more than 50%. Regarding `CC(C)c1cc(Nc2ccc(C(F)(F)F)cc2Cl)ncc1C(=O)NCC1CCC1` [Example 262, 6-(2-Chloro-4-trifluoromethyl-phenylamino)-N-cyclobutylmethyl-4-isopropyl-nicotinamide], the EC50 was less than 300 nM and the Emax is more than 50%. Take `CC(C)c1cc(Nc2ccc(Cl)cc2F)ncc1C(=O)NCC1CCCC1` [Example 91, 6-(4-Chloro-2-fluoro-phenylamino)-N-cyclopentylmethyl-4-isopropyl-nicotinamide]: the EC50 is less than 300 nM and the Emax was more than 50%.
